We go through one compound from article PMC8227162 (Molecules, 2021).

Molecules are shown by their SMILES. “Also recorded” adds a separate entry of the source. Structures can show the parent of a compound that is named as a salt.

The test system of one data set is murine bone marrow cells. More on the design: method as in PMID 12110316. To be noted: cited from earlier work.
A further data set has as its system MDA-MB-231 cells. In words: SRB cytotoxicity assay, MDA-MB-231 cells. In kind it is cell-based. To be noted: Homo sapiens, 48 h incubation (Figure 3 legend: 72 h). The method, then:
(§1) MDA-MB-231, MDA-MB-468, 4T1, and MCF7 cell lines were purchased from American Type Culture Collection (ATCC) (Manassas, VA, USA). RPMI medium supplemented with 5% fetal bovine serum (FBS) was used to culture the cell lines while being maintained in a humidified atmosphere at 37 °C, 5% CO2.
(§2) Cytotoxicity was assessed after 48 h incubation using sulforhodamine B (SRB) assay as described previously. Cells were fixed using 10% trichloroacetic acid and stained with SRB. The cytotoxicity experiments were performed in triplicate (n = 3). The 50% growth inhibition (IC50) was then assessed by using SRB assay after 48 h incubation. Data are represented as the mean ± SD of three independent experiments of each cell line.
Background: The SRB assay estimates cell density from bound dye.

A further data set deals with 4T1 cells. Kind of data set: SRB cytotoxicity assay, 4T1 cells. It is filed as cell-based, murine. To be noted: Mus musculus, 48 h incubation (Figure 3 legend: 72 h). The method, then:
as §1, §2

For the next data set, the system named is MCF7 cells. Kind of data set: SRB cytotoxicity assay, MCF7 cells. It is filed as cell-based. To be noted: Homo sapiens, 48 h incubation (Figure 3 legend: 72 h). The method, then:
as §1, §2

For the next data set, the system named is 4T1 tumors. Kind of data set: In vivo antitumor effects in 4T1 tumor-bearing Balb/c mice. To be noted: 3 mg/kg (TFA equivalent) IV, 9-day treatment. The method, then: Female Balb/c mice (6–12 weeks old, mean weight = 20–25 g) were supplied by the Laboratory Animal Care Facility of the Arabian Gulf University (AGU), Bahrain. […] All animal experiments were performed based on the rules and regulations of the Arabian Gulf University Animal Care Policy and approved by the Research and Ethics Committee, REC Approval No: G-E001-PI-12/16.
To propagate the tumor, female Balb/c mice (n = 3) were injected with one million 4T1 mammary carcinoma cells bilaterally (right and left side) on the flanks. The tumor was then collected and cut down into small pieces with an average size of 1–3 mm^3 in sterile PBS to sustain tumor viability. Following this, 5 mice of each group were shaved, anesthetized, and inoculated with one small piece of the 4T1 tumor tissue subcutaneously. […] The first day of drug administration was set as Day 0. Tumor volume was measured by a manual caliber, and the volume was estimated by using the formula:V (mm^3) = ((transverse section (W)^2 × longitudinal cross section (L))/2)
Tumor volumes were normalized by using the initial tumor volume and represented as the mean ± standard error of the mean (SEM). Additionally, the body weight of mice was measured every day and normalized daily for 9 days.

In the next data set the test system is MDA-MB-468 cells. Kind of data set: SRB cytotoxicity assay, MDA-MB-468 cells. It is filed as cell-based. To be noted: Homo sapiens, 48 h incubation (Figure 3 legend: 72 h). The method, then:
as §1, §2

The subject of data set [1] is MDA-MB-231, MDA-MB-468, 4T1, and MCF7 cells. Kind of data set: SRB cytotoxicity assay, all four breast cancer cell lines. It is filed as cell-based. To be noted: over the four breast cancer cell lines; read-out: IC50 span over all treatments. Here is the method:
as §1, §2

As for `COc1cc2cc(C(=O)N3CC(CCl)c4c3cc(O)c3ccoc43)[nH]c2c(OC)c1OC` (stereo not shown) [TFA, tafuramycin A], the “Toxicity against murine bone marrow cells” value in the data set with murine bone marrow cells is on record as “only mild toxicity”. For the same compound, the concentration for half-maximal inhibition (IC50) was 4.6 nM in the data set on MDA-MB-231 cells; 5.9 nM with 4T1 cells; 4.55 nM in the data set on MCF7 cells; 18.3 nM in the data set with MDA-MB-468 cells; 4.55 to 20.2 nM in data set [1]. Also, the Body weight changes result in the data set with 4T1 tumors was “not associated with any statistically significant weight loss; also recorded: no significant weight loss”.

By IC50 is commonly meant the concentration that gives 50% inhibition.
